In patent publication US8586550B2, “Thiazole derivatives as SGLT2 inhibitors and pharmaceutical composition comprising same” (Green Cross Corporation, priority 2010, dated 2013) one finds IC50 data, which are given here for eleven compounds.

The test addresses T1, Human SGLT2 (hSGLT2) (Homo sapiens, UniProt P31639).
T1 construct: expressed in transfected cells
T1 sequence (P31639 1-672): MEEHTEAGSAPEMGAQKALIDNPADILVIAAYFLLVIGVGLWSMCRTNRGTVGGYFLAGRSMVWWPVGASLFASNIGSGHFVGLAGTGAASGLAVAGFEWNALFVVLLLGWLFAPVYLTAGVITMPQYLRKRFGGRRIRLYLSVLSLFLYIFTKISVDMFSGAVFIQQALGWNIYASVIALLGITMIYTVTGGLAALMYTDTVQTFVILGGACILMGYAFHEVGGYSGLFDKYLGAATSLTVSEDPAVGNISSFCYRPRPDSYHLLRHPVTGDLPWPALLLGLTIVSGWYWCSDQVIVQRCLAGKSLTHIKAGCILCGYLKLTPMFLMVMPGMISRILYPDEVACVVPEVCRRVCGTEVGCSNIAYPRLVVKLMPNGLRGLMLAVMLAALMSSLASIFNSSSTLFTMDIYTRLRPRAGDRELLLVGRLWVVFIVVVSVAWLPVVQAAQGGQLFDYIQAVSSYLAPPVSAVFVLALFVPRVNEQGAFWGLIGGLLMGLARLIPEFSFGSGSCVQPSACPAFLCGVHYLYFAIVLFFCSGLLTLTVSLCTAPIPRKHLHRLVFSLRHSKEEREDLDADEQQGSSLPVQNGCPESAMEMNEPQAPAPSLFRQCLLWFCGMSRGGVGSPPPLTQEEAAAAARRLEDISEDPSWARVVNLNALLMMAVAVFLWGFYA
As to the kind of experiment: Sodium-dependent glucose transport (14C-AMG uptake) assay in CHO cells stably expressing hSGLT2. The class given is cell-based. The conditions noted are these: CHO cells expressing hSGLT2, 14C-AMG uptake, 37° C. for 2 h; single determinations; read-out: hSGLT2 Inhibitory Activity IC50. The procedure, abridged:
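CHO cells stably expressing human SGLT2, preincubated 10 min at 37 °C in sodium-free choline buffer, then 2 h at 37 °C in Na+ buffer with 1 mM AMG plus 8 μM 14C-AMG and inhibitor. Washed cells counted by scintillation; IC50 by nonlinear regression.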
With `C=CCc1cnc(Cc2cc([C@@H]3O[C@H](CO)[C@@H](O)[C@H](O)[C@H]3O)ccc2Cl)s1` [Example 17, (2S,3R,4R,5S,6R)-2-(3-((5-Allylthiazol-2-yl)methyl)-4-chlorophenyl)-6-(hydroxymethyl)-tetrahydro-2H-pyran-3,4,5-triol], the half-maximal inhibitory concentration (IC50) amounted to 0.0115 µM.
Consider `COc1c(Cc2ncc(-c3ccc(F)cc3)s2)cc([C@@H]2O[C@H](CO)[C@@H](O)[C@H](O)[C@H]2O)c2ccccc12` [Example 2, (2S,3R,4R,5S,6R)-2-(3-((5-(4-Fluorophenyl)thiazol-2-yl)methyl)-4-methoxynaphthalen-1-yl)-6-(hydroxymethyl)-tetrahydro-2H-pyran-3,4,5-triol], for which the IC50 is 0.012 µM.
Under `CCCCCOc1cnc(Cc2cc([C@@H]3O[C@H](CO)[C@@H](O)[C@H](O)[C@H]3O)ccc2Cl)s1` [Example 23, (2S,3R,4R,5S,6R)-2-(4-Chloro-3-((5-(pentyloxy)thiazol-2-yl)methyl)phenyl)-6-(hydroxymethyl)-tetrahydro-2H-pyran-3,4,5-triol] stands 0.00821 µM; under `OC[C@H]1O[C@@H](c2ccc(Cl)c(Cc3cnc(-c4cscn4)s3)c2)[C@H](O)[C@@H](O)[C@@H]1O` [Example 193, (2S,3R,4R,5S,6R)-2-(3-(2,4′-Bithiazol-5-ylmethyl)-4-chlorophenyl)-6-(hydroxymethyl)tetrahydro-2H-pyran-3,4,5-triol], 0.0177 µM.
Under `Cc1ccc([C@@H]2O[C@H](CO)[C@@H](O)[C@H](O)[C@H]2O)cc1Cc1ncc(-c2ccc(F)cc2)s1` [Example 37, (2S,3R,4R,5S,6R)-2-(3-((5-(4-Fluorophenyl)thiazol-2-yl)methyl)-4-methylphenyl)-6-(hydroxymethyl)tetrahydro-2H-pyran-3,4,5-triol] stands 0.0098 µM; under `OC[C@H]1O[C@@H](c2cn(Cc3ncc(-c4ccccc4)s3)c3ccccc23)[C@H](O)[C@@H](O)[C@@H]1O` [Example 137, (2R,3S,4R,5R,6S)-2-(Hydroxymethyl)-6-(1-((5-phenylthiazol-2-yl)methyl)-1H-indol-3-yl)-tetrahydro-2H-pyran-3,4,5-triol], 0.124 µM.
For `CSc1ncc(Cc2cc([C@@H]3O[C@H](CO)[C@@H](O)[C@H](O)[C@H]3O)ccc2Cl)s1` [Example 197, (2S,3R,4R,5S,6R)-2-(4-Chloro-3-((2-(methylthio)thiazol-5-yl)methyl)phenyl)-6-(hydroxymethyl)tetrahydro-2H-pyran-3,4,5-triol], the IC50 was determined as 0.00948 µM.
Under `OC[C@H]1O[C@@H](c2ccc(F)c(Cc3ncc(-c4cccs4)s3)c2)[C@H](O)[C@@H](O)[C@@H]1O` [Example 42, (2S,3R,4R,5S,6R)-2-(4-Fluoro-3-((5-(thiophen-2-yl)thiazol-2-yl)methyl)phenyl)-6-(hydroxymethyl)tetrahydro-2H-pyran-3,4,5-triol] stands 0.0254 µM; under `OC[C@H]1O[C@@H](c2cc(Cc3ncc(-c4ccoc4)s3)c(Cl)cc2F)[C@H](O)[C@@H](O)[C@@H]1O` [Example 54, (2S,3R,4R,5S,6R)-2-(4-Chloro-2-fluoro-5-((5-(furan-3-yl)thiazol-2-yl)methyl)phenyl)-6-(hydroxymethyl)tetrahydro-2H-pyran-3,4,5-triol], 0.00535 µM.
With `Cc1ccc([C@@H]2O[C@H](CO)[C@@H](O)[C@H](O)[C@H]2O)cc1Cc1ncc(-c2ccc(Cl)cc2)s1` [Example 38, (2S,3R,4R,5S,6R)-2-(3-((5-(4-Chlorophenyl)thiazol-2-yl)methyl)-4-methylphenyl)-6-(hydroxymethyl)tetrahydro-2H-pyran-3,4,5-triol], the IC50 was 0.0256 µM.
Turning to “(2S,3R,4R,5S,6R)-2-(4-Chloro-2-ethoxy-5-((5-(furan-3-yl)thiazol-2-yl)methyl)phenyl)-6-(hydroxymethyl)tetrahydro-2H-pyran-3,4,5-triol [Example 31]”, the IC50 worked out at 0.00366 µM.

For orientation: IC50 means the midpoint of a concentration-inhibition curve.
